Results taken from patent publication US20210360924A1, “PLANT OR SEED COATING” (University of Southampton, priority 2017, published 2021).
Entries after “also recorded” stand apart in the source; their conditions may differ.

What was measured:
[1] = test system: G. pallida TPH-1; assay: Pharyngeal pumping on food with CPA, tph-1 (mg280) expressing G. pallida tph-1; type: in vivo, Globodera pallida; details: tph-1 mutant expressing G. pallida tph-1
Procedure: (§1) Experiments were performed on one day old age synchronised worms by picking L4 stage a day before the assay. Due to the translucent nature of the worm, pharyngeal pumping may be scored in the intact animals by counting the movements of the grinder in the terminal bulb: one complete up and down motion is counted as a single pharyngeal pump. The number of pharyngeal pumps was counted on E. coli OP50 in N2, in the mutants tph-1 (mg280), ser-7 (tm1325), cat-1 (ok411) and in mutants with ectopic expression of C. elegans (ce) or G. pallida (ppn) tph-1, ser-7 or cat-1 in all of the neurons (Psnb-1 promoter).
(§2) To test the effects of CPA (4-chloro-DL-phenylalanine methyl ester hydrochloride) on pharyngeal pumping one day old adult C. elegans for N2, tph-1 (mg280) and tph-1-1 (mg280) with ectopic expression of C. elegans (ce) or G. pallida (Gpa) tph-1 were placed onto E. coli OP50 containing CPA on NGM plates and the number of pharyngeal pumps on food per min was scored after 2 and 18 hours.

[2] = test system: C. elegans TPH-1; assay: Pharyngeal pumping of C. elegans on food with CPA; type: in vivo
Procedure: as §1, §2

[3] = test system: G. pallida J2s; assay: G. pallida stylet thrusting assay; type: in vivo, Globodera pallida; details: for effect on stylet behaviour: concentrations up to 10 mM (data not shown); for stimulation of stylet thrusting by the compound itself: J2s in compound alone; for exposure time at which maximal stylet response was seen / maximally effective concentration for stylet thrusting / effect on S-shaped posture and reduced movement induced by fluoxetine: in vivo; for effect on stylet response to fluoxetine / effect on stylet response to exogenous serotonin: 24 h presoak
Procedure: Stylet thrusting assays were conducted in 20 mM HEPES buffered ddH2O, with pH adjusted to 7.4 with NaOH. J2s were pipetted into 3 ml of the test solutions in 30 mm petri dishes and the number of stylet thrusts per minute was counted at various time points as stated in figure legends. A single movement of the stylet knob forwards and then backwards to its original position was counted as one stylet thrust. Control assays were conducted in the presence of either 20 mM HEPES alone or 20 mM HEPES with drug vehicle, as indicated in figure legends. All assays were conducted at room temperature (20-22° C.). All drug solutions were made up on the day of use. Each solution contained 0.01% bovine serum albumin to prevent worms from sticking to the Petri dish. Reserpine was dissolved in 100% acetone and then 1 in 200 dilution was made using Hepes buffer (pH 7.4). […] Final concentration 50 μM reserpine.
For experiments in which J2s were pre-treated with reserpine phosphate or CPA, the worms were pre-soaked in the drug solutions for 24 hours.

[4] = test system: G. pallida J2s; assay: Root invasion assay on potato hairy root cultures; type: in vivo, Globodera pallida; details: J2s pre-incubated 24 h with 100 μM compound
Procedure: J2s of G. pallida were first sterilised with 0.1% chlorhexidine digluconate, 0.5 mg/ml CTAB for 25 mins and washed three times with sterile 0.01% Tween-20. The J2s were then incubated with gentle agitation for 24 hours in water, 100 μM reserpine phosphate, 100 μM methiothepin, 100 μM CPA or 2 mM fluoxetine prior to inoculation of potato hairy root cultures with 25 J2s per infection point and 3 infection points per root system. Hairy root cultures were generated using Agrobacterium rhizogenes R1000 and multiplied. Individual root systems of equivalent size growing on 9 cm plates containing Murashige and Skoog basal medium (Duchefa, Suffolk, UK) with 2% sucrose were selected for inoculation. Nine to 11 replicate plates were used for each treatment or control. Roots were stained with acid fuchsin 13 days after infection and the number of nematodes in each root system counted. Each complete invasion assay was carried out on two separate occasions.

[5] = test system: C. elegans; assay: Pharyngeal pumping of intact C. elegans off food with fluoxetine; type: in vivo, Caenorhabditis elegans
Procedure: as §1
To test the effects of fluoxetine one day old C. elegans for N2, cat-1 (ok411) and cat-1 (ok411) with ectopic expression of C. elegans (ce) or G. pallida (Gpa) cat-1 were placed onto unseeded NGM plates containing fluoxetine and the number of pharyngeal pumps per min was scored after 1 h and 18 h.

[6] = target: T1, C. elegans SER-7 (Caenorhabditis elegans, UniProt Q22895); assay: Cut head pharyngeal pumping assay
T1 sequence (Q22895 1-435): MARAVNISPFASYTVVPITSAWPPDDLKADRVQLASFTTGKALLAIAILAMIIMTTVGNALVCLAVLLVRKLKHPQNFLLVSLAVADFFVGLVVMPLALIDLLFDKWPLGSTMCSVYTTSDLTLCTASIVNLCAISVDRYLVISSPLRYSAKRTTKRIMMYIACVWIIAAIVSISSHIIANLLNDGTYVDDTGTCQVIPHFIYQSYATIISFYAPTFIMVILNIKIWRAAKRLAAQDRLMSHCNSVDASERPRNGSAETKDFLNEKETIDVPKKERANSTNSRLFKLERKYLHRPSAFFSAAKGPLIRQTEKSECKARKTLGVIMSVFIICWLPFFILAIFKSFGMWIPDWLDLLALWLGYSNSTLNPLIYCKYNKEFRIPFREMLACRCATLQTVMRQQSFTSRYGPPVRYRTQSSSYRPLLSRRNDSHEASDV
Procedure: Additionally, an intact pharynx containing a terminal bulb was dissected from the rest of the worm with a razor blade. The pharyngeal preparation was placed into 3 ml of Dent's saline (with 0.1% BSA and the drugs 5-HT or methiothepin) in a 25 mm Petri dish. Pharyngeal pumps were scored visually, as for the intact worms, for 1 min. For controls, the pharyngeal pumping was scored in Dent's saline (0.1% BSA) without drugs with appropriate vehicle controls.

[7] = test system: G. pallida; assay: Hatching of J2s from cysts/eggs; set-up: species or system Globodera pallida; details: in vivo
[8] = target: G. pallida SER-7 (Globodera pallida, UniProt A0A183BS20, DEL280-286/G462A/H333Q/S454N/S6T/Y334H); assay: Cut head pharyngeal pumping assay, ser-7 (tm1325) expressing Gpa-ser-7; details: 100 nM; transgenics expressing G. pallida ser-7; 100 μM serotonin
Chain of G. pallida SER-7 (A0A183BS20 whole entry, stated change not applied): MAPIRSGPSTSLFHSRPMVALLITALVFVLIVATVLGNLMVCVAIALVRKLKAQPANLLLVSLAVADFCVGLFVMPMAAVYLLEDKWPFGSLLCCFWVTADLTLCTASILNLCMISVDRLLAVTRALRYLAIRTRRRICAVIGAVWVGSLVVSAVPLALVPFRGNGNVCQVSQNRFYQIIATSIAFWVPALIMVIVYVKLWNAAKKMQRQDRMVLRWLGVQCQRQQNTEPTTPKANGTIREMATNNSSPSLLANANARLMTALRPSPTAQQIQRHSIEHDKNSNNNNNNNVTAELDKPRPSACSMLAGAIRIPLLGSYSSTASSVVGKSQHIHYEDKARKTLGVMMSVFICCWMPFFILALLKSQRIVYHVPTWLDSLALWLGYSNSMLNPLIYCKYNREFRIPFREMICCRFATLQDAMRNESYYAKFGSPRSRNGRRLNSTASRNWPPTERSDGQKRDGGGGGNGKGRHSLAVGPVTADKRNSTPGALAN

[9] = test system: C. elegans MOD-1; assay: Thrashing paralysis assay (serotonin-induced paralysis), wild type; type: in vivo, Caenorhabditis elegans; details: wild type worms; 10 μM methiothepin; 33 mM serotonin
Procedure: (§3) For the methiothepin treatment group, 10 μM methiothepin was included in the wells of the microtitre plate. Wild type (N2), mod-1 (ok103), and the transgenic strains expressing gpa-mod-1 in mod-1 (ok103) were tested.

[10] = test system: G. pallida MOD-1; assay: Thrashing paralysis assay, mod-1 (ok103) expressing G. pallida mod-1; type: in vivo, Globodera pallida; details: worms expressing G. pallida mod-1; 10 μM methiothepin; 33 mM serotonin
Procedure: as §3

[11] = test system: G. pallida J2s; assay: G. pallida dispersal (motility) assay on agar arena; type: in vivo, Globodera pallida; details: pre-incubation with 50 μM for 18 h
Procedure: Dispersal assays were performed on 5 cm plates filled with 10 ml of 2% agarose. […] For the reserpine assays worms were pre-soaked in the compound for 18 h. On the day of the assay 100 μl of potato root diffusate (PRD), ddH2O or drug solvents were spread onto the plates and the plates were sealed with the parafilm. The grid with six equal concentric circles was placed under the assay plates and the centre was marked with a dot. Around 50-100 G. pallida J2s or C. elegans L2 s were pipetted with 5 μl of ddH2O onto the centre (origin), the plate was re-sealed and the total number of worms was counted as soon as the liquid had absorbed. The number of J2s in each concentric circle was counted after 1, 2 and 24 hours.

Question: Which “ability to inhibit pharyngeal pumping” value [1] does the source give for `COC(=O)C(N)Cc1ccc(Cl)cc1.Cl` (racemic) [CPA, 4-chloro-DL-phenylalanine methyl ester hydrochloride] here?
Answer: restored

Question: What about the “inhibition of pharyngeal pumping” value ([2]; tph-1 mutant) of the same molecule?
Answer: did not cause any further reduction

Question: What about the “ability to inhibit pharyngeal pumping” value ([2]; tph-1 mutant expressing C. elegans tph-1) of the same molecule?
Answer: restored

Question: And the “inhibition of pharyngeal pumping” value ([2]; wild type C. elegans, CPA 10 mM)?
Answer: significantly inhibited

Question: What about the “stylet thrusting in response to fluoxetine” value ([3]; 10 mM CPA overnight, 2 mM fluoxetine 30 min) of the same molecule?
Answer: reduced stylet thrusting

Question: What about the “stylet thrusting in response to serotonin” value ([3]; 10 mM CPA overnight, 10 mM serotonin 30 min) of the same molecule?
Answer: maintained their response

Question: What about the “number of nematodes present in the roots 13 days after inoculation (root invasion)” value (“number of nematodes present” below) [4] of the same molecule?
Answer: significantly reduced

Question: With `NCCc1ccc(O)c(O)c1` [Dopamine] as the molecule, how does the “effect on stylet behaviour” value [3] read?
Answer: no effect

Question: Which results are given for `CNCCC(Oc1ccc(C(F)(F)F)cc1)c1ccccc1` (stereo not drawn) [fluoxetine]?
Answer: stimulation of stylet thrusting by the compound itself [3]: time-dependent and concentration-dependent stimulation; also recorded: stimulatory effects; exposure time at which maximal stylet response was seen [3]: 30 min; maximally effective concentration for stylet thrusting [3]: 2 mM; shape of stylet concentration response curve ([3]; response after 1 h): bell-shaped; stimulation of pharyngeal pumping in the absence of food ([5]; 1 mM and 2 mM, or longer exposure at 500 μM): did not cause a stimulation; stimulation of pharyngeal pumping in the absence of food ([5]; C. elegans cat-1 mutant): not observed; exposure time of maximal stimulation of pharyngeal pumping ([5]; absence of food): 1 h; low dose stimulation of pharyngeal pumping ([5]; cat-1 mutant expressing ppn-cat-1 (G. pallida)): restored; low dose stimulation of pharyngeal pumping ([5]; cat-1 mutant expressing wild-type C. elegans cat-1): restored; stimulation of pharyngeal pumping in the absence of food ([5]; wild type, 5 to 500 μM): concentration-dependent

Question: Which “stimulation of stylet thrusting by the compound itself” value [3] does the source give for `CN(C)CCCN1c2ccccc2CCc2ccccc21` [imipramine] here?
Answer: stimulatory effects

Question: For `CSc1ccc2c(c1)C(N1CCN(C)CC1)Cc1ccccc1S2` (stereo not drawn) [methiothepin], which “inhibition of stimulatory effect of serotonin on pumping” value ([6]; 100 nM, transgenics expressing C. elegans ser-7, 100 μM serotonin) is on record?
Answer: around 50%

Question: And the “emergence of J2s from eggs (hatching)” value [7]?
Answer: potently inhibited

Question: And the “antagonism of serotonin-induced stylet thrusting” value ([3]; G. pallida J2s)?
Answer: potent antagonist

Question: What about the “effect on S-shaped posture and reduced movement induced by fluoxetine” value [3] of the same molecule?
Answer: blocked

Question: And the “inhibition of stimulatory effect of serotonin on pumping” value [8]?
Answer: around 50%

Question: What about the “number of nematodes present” value [4] of the same molecule?
Answer: blocked

Question: And the “effect on mod-1 dependent serotonin-induced paralysis” value [9]?
Answer: blocked

Question: And the “effect on mod-1 dependent serotonin-induced paralysis” value [10]?
Answer: blocked

Question: Which “effect on stylet behaviour” value [3] does the source give for `NCC(O)c1ccc(O)cc1` (stereo not drawn) [octopamine] here?
Answer: no effect

Question: With `COC(=O)[C@H]1[C@H]2C[C@@H]3c4[nH]c5cc(OC)ccc5c4CCN3C[C@H]2C[C@@H](OC(=O)c2cc(OC)c(OC)c(OC)c2)[C@@H]1OC` [reserpine, (3β,16β,17α,18β,20α)-11,17-Dimethoxy-18-[(3,4,5-trimethoxybenzoyl)oxy]yohimban-16-carboxylic acid methyl ester] as the molecule, how does the “dispersal from origin of agar arena (motility)” value [11] read?
Answer: significant reduction

Question: What about the “block of stimulatory effect of fluoxetine on stylet” value ([3]; 5 μM, 24 h soak, 2 mM fluoxetine) of the same molecule?
Answer: near-complete block

Question: And the “recovery of fluoxetine-induced stylet response after washing” value ([3]; 50 μM for 24 h, then water wash up to 22 hours)?
Answer: No recovery

Question: And the “block of stimulatory effect of fluoxetine on stylet” value ([3]; 50 μM, 24 h soak, 2 mM fluoxetine)?
Answer: near-complete block

Question: And the “exposure time at which reduction of fluoxetine-stimulated stylet activity was evident” value ([3]; 50 μM, 2 mM fluoxetine)?
Answer: 4 h

Question: What about the “exposure time to full block of fluoxetine-stimulated stylet activity” value ([3]; 50 μM, 2 mM fluoxetine) of the same molecule?
Answer: 8 h

Question: What about the “exposure time to full inhibition of fluoxetine-stimulated stylet activity” value ([3]; 50 μM, 2 mM fluoxetine 30 mins (FIG. 14B)) of the same molecule?
Answer: 8 h

Question: And the “effect on stylet response to fluoxetine” value ([3]; 2 mM fluoxetine 30 min)?
Answer: concentration-dependent inhibition

Question: What about the “effect on stylet response to fluoxetine” value ([3]; 2 mM fluoxetine 30 min, listed as Reserpine) of the same molecule?
Answer: potently blocked

Question: And the “effect on stylet response to exogenous serotonin” value ([3]; 10 mM serotonin 30 min)?
Answer: no effect

Question: And the “effect on stylet response to exogenous serotonin” value ([3]; 10 mM serotonin 30 min, listed as Reserpine)?
Answer: but not the response to serotonin

Question: What about the “lowest concentration giving significant reduction of fluoxetine-induced stylet activity” value ([3]; 24 h soak, 2 mM fluoxetine 30 min) of the same molecule?
Answer: 5 nM

Question: And the “effect on S-shaped posture and reduced movement induced by fluoxetine” value [3]?
Answer: blocked

Question: And the “independent stimulatory effect on stylet activity” value ([3]; reserpine alone)?
Answer: no independent stimulatory effect

Question: And the “number of nematodes present” value [4]?
Answer: significantly decreased

Question: Which EC50 ([6]; EC50, activation of pharyngeal pumping, transgenic psnb-1::Ce-ser-7a, cut head, 95% confidence 457 nM to 1.34 μM) does the source give for `NCCc1c[nH]c2ccc(O)cc12` [serotonin, 5-hydroxytryptamine] here?
Answer: 782 nM

Question: What about the EC50 ([6]; EC50, increase in pharyngeal pumping, wild type worms, cut head, 95% confidence 164 nM to 304 nM) of the same molecule?
Answer: 223 nM

Question: What about the pharyngeal pumping response ([6]; ser-7 (tm1325) mutants, cut head, up to 100 μM) of the same molecule?
Answer: did not respond

Question: What about the “stimulation of stylet thrusting by the compound itself” value [3] of the same molecule?
Answer: time-dependent and concentration-dependent stimulation

Question: What about the “exposure time at which maximal stylet response was seen” value [3] of the same molecule?
Answer: 30 min

Question: What about the “maximally effective concentration for stylet thrusting” value [3] of the same molecule?
Answer: 10 mM

Question: What about the “concentration above which stylet concentration-response curve reached maximum plateau” value ([3]; response after 1 h) of the same molecule?
Answer: above 2 mM

Question: `NCCc1ccc(O)cc1` [tyramine] was tested. Which “effect on stylet behaviour” value [3] did it give?
Answer: no effect
